Results: the OligoGym collection
Values joined by “and” are separate entries in the source; they are usually repeats but may differ in a detail not shown here. Identical values can stand only once. After the bases stand the sugars from the 5' end (letter, count) and the backbone: PS all phosphorothioate, else s phosphorothioate and o phosphodiester by linkage. Methylation of C is not given here. e = 2'-O-(2-methoxyethyl) (MOE); k = constrained ethyl (cEt); d = 2'-deoxy (DNA)

Target: APOL1
Details: ASO

Sequence | target mRNA inhibition (A431, 2 µM) [%] | target mRNA inhibition (A431, 0.0625 µM) | target mRNA inhibition (A431, 0.25 µM) | target mRNA inhibition (A431, 1 µM) | target mRNA inhibition (A431, 0.0156 µM) [%] | target mRNA inhibition (A431, 0.04 µM)
GAAGATTGGCTCTGGC (sugars k3 d4 k3 e1 d5, PS) | 70 |  |  |  |  | 
GAAGATTGGCTCTGGC (sugars kddddkekekeddddd, PS) | 21 |  |  |  |  | 
GAAGATTGGCTCTGGC (sugars kekddddeekkddddd, PS) | 87 |  |  |  |  | 
GAAGATTGGCTCTGGC (sugars kkddddkekekkdddd, PS) | 10 |  |  |  |  | 
GAAGCTTTAAACTCAG (sugars kkddddkekekddddd, PS) | 84 |  |  |  |  | 
GAATTATGGAATTGCA (sugars k4 d9 k3, PS) |  | 59% | 82% | 92% |  | 
GAATTATGGAATTGCA (sugars kkddddkekekddddd, PS) | 51 |  |  |  |  | 
GAGAACATTGAAACAC (sugars k3 d10 k3, PS) |  | 19% | 65% | 86% |  | 
GAGTATTGTTTTTGTG (sugars k3 d4 k3 e1 d5, PS) | 88 |  |  |  |  | 
GAGTATTGTTTTTGTG (sugars kekddddeekkddddd, PS) | 90 |  |  |  |  | 
GAGTATTGTTTTTGTG (sugars kkddddekekeddddd, PS) | 98 | 78% | 92% | 97% | 40 | 47% and 50%
GAGTATTGTTTTTGTG (sugars kkkddddkekeddddd, PS) | 81 |  |  |  |  | 
GAGTCATTAGTGCTAT (sugars k4 d9 k3, PS) |  | 53% | 77% | 85% |  | 
GAGTCATTTGCTAGGT (sugars k4 d9 k3, PS) |  | 78% | 89% | 92% |  | 
GATTCTGTGTGCTCAC (sugars k4 d9 k3, PS) |  | 46% | 72% | 87% |  | 
GCAAGGCTAAGTTCCG (sugars k4 d9 k3, PS) |  | 79% | 92% | 97% |  | 
GCAATGCTGACTTGGC (sugars kkddddkekekkdddd, PS) | 91 | 12% | 44% | 80% | 5 | 
GCAGTTTCATATTCAC (sugars k4 d9 k3, PS) |  | 75% | 92% | 98% |  | 
GCAGTTTTGTAAGTGC (sugars k3 d4 k3 e1 d5, PS) | 76 |  |  |  |  | 

Sequence | target mRNA inhibition (A431, 2 µM) [%] | target mRNA inhibition (A431, 0.0625 µM) | target mRNA inhibition (A431, 0.25 µM) | target mRNA inhibition (A431, 1 µM) | target mRNA inhibition (A431, 0.0156 µM) [%] | target mRNA inhibition (A431, 0.04 µM)
GCTAATTTTCTGACTG (sugars k2 d4 e3 k2 d5, PS) | 94 | 62% | 81% | 92% | 35 | 
GCTAATTTTCTGACTG (sugars k3 d4 k3 e1 d5, PS) | 92 | 46% | 76% | 87% | 2 | 
GCTAATTTTCTGACTG (sugars kdddddkekekddddd, PS) | 98 |  |  |  |  | 
GCTATGGAAATGCCAA (sugars k4 d9 k3, PS) |  | 28% | 61% | 81% |  | 
GCTGGGTCTGTAGTGG (sugars k4 d9 k3, PS) |  | 49% | 70% | 82% |  | 
GCTTTAAACTCAGGTG (sugars kkddddekekeddddd, PS) | 92 | 41% | 62% | 86% | 14 | 
GCTTTAAACTCAGGTG (sugars kkkddddkekeddddd, PS) | 82 |  |  |  |  | 
GGAAATGAACGCAATG (sugars k4 d9 k3, PS) |  | 37% | 71% | 87% |  | 
GGAATTATGGAATTGC (sugars kkkddddkdkdkdddd, PS) | 76 |  |  |  |  | 
GGCAGTTTTGTAAGTG (sugars k2 d4 e3 k2 d5, PS) | 80 |  |  |  |  | 
GGGAATTATGGAATTG (sugars k2 d4 e3 k2 d5, PS) | 86 |  |  |  |  | 
GGGAATTATGGAATTG (sugars k4 d9 k3, PS) |  | 48% and 59% | 70% and 67% | 80% and 77% |  | 
GGGTTATGAAATTATT (sugars kkddddekekeddddd, PS) | 88 |  |  |  |  | 
GGTTCAAAAGCAGCAT (sugars k3 d4 k3 e1 d5, PS) | 74 |  |  |  |  | 
GGTTCAAAAGCAGCAT (sugars kkkddddkekeddddd, PS) | 70 |  |  |  |  | 
GGTTGTCCAGAGCTTT (sugars k4 d9 k3, PS) |  | 100% | 84% | 91% |  | 
GTAAGTATTGCCAGCT (sugars kkkddddkekekdddd, PS) | 73 |  |  |  |  | 
GTAGAATGAGCAGGTC (sugars k4 d9 k3, PS) |  | 84% | 97% | 99% |  | 
